In patent publication US20210171554A1, “BENZOTHIOPHENE ESTROGEN RECEPTOR MODULATORS TO TREAT MEDICAL DISORDERS” (G1 Therapeutics, Inc., priority 2018, published 2021):

Key:
[1] = molecular target: T1, estrogen receptor (Homo sapiens, UniProt P03372); experiment: Estrogen Receptor (ER) Degradation Assay (In-Cell Western, MCF7 cells); type: cell-based; set-up: key to % Estrogen Receptor Remaining: **** denotes 0-0% Estrogen Receptor remaining; *** denotes 417% Estrogen Receptor remaining; ** denotes 719% Estrogen Receptor remaining; * denotes 9110% Estrogen Receptor remaining; settings: for DC50: 24 hours incubation, In-Cell Western, read-out: Estrogen Receptor Degradation Assay IC50; for % Estrogen Receptor Remaining: vehicle set to 100% ER
T1 construct: MCF7 cells, which are estrogen receptor positive; endogenous in cells; host or cells: MCF7
T1 sequence (P03372 1-595): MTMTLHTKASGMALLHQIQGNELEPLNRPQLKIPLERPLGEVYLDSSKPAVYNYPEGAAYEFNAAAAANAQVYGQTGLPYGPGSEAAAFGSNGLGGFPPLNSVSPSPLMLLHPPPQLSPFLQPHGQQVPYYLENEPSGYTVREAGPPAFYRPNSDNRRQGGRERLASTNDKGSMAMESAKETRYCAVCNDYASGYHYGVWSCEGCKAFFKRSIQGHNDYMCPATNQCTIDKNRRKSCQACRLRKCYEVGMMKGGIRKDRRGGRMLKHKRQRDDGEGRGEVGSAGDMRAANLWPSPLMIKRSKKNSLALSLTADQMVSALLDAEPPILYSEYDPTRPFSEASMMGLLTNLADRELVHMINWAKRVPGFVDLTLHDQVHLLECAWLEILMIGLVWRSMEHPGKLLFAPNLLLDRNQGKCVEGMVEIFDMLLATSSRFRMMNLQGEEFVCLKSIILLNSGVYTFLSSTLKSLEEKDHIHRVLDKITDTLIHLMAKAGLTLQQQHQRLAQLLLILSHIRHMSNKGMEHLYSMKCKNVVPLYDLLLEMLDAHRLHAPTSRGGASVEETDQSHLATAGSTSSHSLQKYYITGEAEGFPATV
Description: A screening strategy was implemented utilizing an In-Cell Western assay to measure their ability to degrade the estrogen receptor in vitro. MCF7 cells, which are estrogen receptor positive, were plated at a cell density of […] into black walled clear bottom 96-well plates. Cells were incubated in phenol red free Dulbecco's Modified Eagle Media (DMEM) supplemented with 8% charcoal-stripped fetal bovine calf serum for 24 hours in a humidified 37° C. incubator. Concentrated stock compounds were diluted to 10× in complete media. Compounds were added to the plated cells in a dose-dependent manner ranging from 1E-12 to 1E-05 M and incubated for an additional 24 hours at 37° C. Culture medium was removed from the culture plates by gentle inversion. Cells were fixed in 4% paraformaldehyde in 1×phosphate buffered saline-calcium magnesium free (PBS-CMF) for 15 minutes at room temperature, washed 3 times for 5 minutes each in 1×PBS-CMF. Cells were permeabilized in immunofluorescence (IF) blocking buffer (Cell Signaling #12411) containing 0.3% Triton X100. Cells were washed 3 times for 5 minutes each in 1×PBS-CMF and incubated in estrogen receptor α (D6R2W) rabbit primary antibody (Cell Signaling #13258) diluted 1:300 in IF antibody dilution buffer (Cell Signaling #12378). Cells were washed 3 times for 5 minutes each in 1×PBS-CMF and stained with goat anti-rabbit (Biotium #CF770) secondary antibody diluted 1:2000 in IF antibody dilution buffer and normalizing stain CellTag 700 diluted 1:500 (Licor #926-41090). ER protein expression was assessed by the Licor Odyssey CLx imaging system using Image Studio v5.2. Data is processed utilizing GraphPad Prism 7 by subtracting background from the vehicle and setting the vehicle to 100% ER activity, followed by comparing treated samples to vehicle.
(§1) In the below table for the Estrogen Receptor Degradation Assay and the Human ERα Reporter Assay: […]

[2] = molecular target: T2, human estrogen receptor (ERα) (Homo sapiens, UniProt P03372); experiment: Human ERα Reporter Assay (Indigo Biosciences, antagonist mode); type: cell-based; settings: antagonist activity, reporter cells with 17β-estradiol 8E-10 M, 24 hours
T2 construct: purchased Indigo Biosciences #1B00401
T2 sequence (P03372 1-595): T1 sequence (P03372 1-595)
Description: All reagents used in this assay was supplied in the Human ERα Reporter Assay by Indigo Biosciences #1B00401. In an effort to screen selective estrogen receptor degraders (SERDs), the Human ERα Reporter Assay, supplied by Indigo Biosciences, was utilized to quantify antagonist functional activity against the human estrogen receptor. Reporter cells were thawed at 37° C. and added to pre-warmed to 37° C. cell recovery medium (CRM). Stock concentration of 17β-estradiol was serially diluted in CRM. Diluted 17β-estradiol was added to CRM containing reporter cells resulting in a working concentration of 1.6 nM (2×). Cells plus 17β-estradiol were dispensed in a kit-supplied white walled 96-well plate. Concentrated stocks of test compounds were diluted to 2× working concentrations in cell screening medium (CSM). 2× concentrated compounds were added to the plated cells in a dose-dependent manner resulting in a final concentration range of 1E-11 to 1E-5 M and a final […] concentration of 8E-10 M. Assay plates were incubated for 24 hours in a humidified 37° C. incubator. Culture medium was removed from the assay plates by inversion. Detection substrate and buffer was warmed to room temperature, mixed thoroughly, and immediately added to the assay plates. Assay plates were incubated for 15 minutes at room temperature protected from light. Luminescence was measured in a Synergy HTX luminescence plate reader. Data is processed utilizing GraphPad Prism 7 by graphing the relative light units measured at each compound concentration.
as §1

DC50 [1] | % Estrogen Receptor Remaining [1] | IC50 [2] | SMILES
< 1000 nM | *** | < 1000 nM | CCNCCc1ccc(Oc2c(C(=O)c3c(C)cc(F)cc3C)sc3cc(C(=O)O)ccc23)cc1 [Compound 106, 3-(4-(2-(ethylamino)ethyl)phenoxy)-2-(4-fluoro-2,6-dimethylbenzoyl)benzo[b]thiophene-6-carboxylic acid]
< 1000 nM | ** | – | Cc1cc(F)cc(C)c1C(=O)c1sc2cc(O)ccc2c1Oc1ccc(OCCN2CCC(CCCF)C2)cc1 (stereo not shown) [Compound 115, (4-fluoro-2,6-dimethylphenyl)(3-(4-(2-(3-(3-fluoropropyl)pyrrolidin-1-yl)ethoxy)phenoxy)-6-hydroxybenzo[b]thiophen-2-yl)methanone]
< 1000 nM | *** | < 1000 nM | Cc1cc(F)cc(C)c1C(=O)c1sc2cc(O)ccc2c1-c1ccc(OCCN2CCCC2)cc1 [Compound 109, (4-fluoro-2,6-dimethylphenyl)(6-hydroxy-3-(4-(2-(pyrrolidin-1-yl)ethoxy)phenyl)benzo[b]thiophen-2-yl)methanone]
< 1000 nM | *** | < 1000 nM | Cc1cc(F)cc(C)c1C(=O)c1sc2cc(O)ccc2c1Oc1ccc(O[C@H]2CCNC2)cc1 [Compound 101, (S)-(4-fluoro-2,6-dimethylphenyl)(6-hydroxy-3-(4-(pyrrolidin-3-yloxy)phenoxy)benzo[b]thiophen-2-yl)methanone]
< 1000 nM | ** | < 50000 nM | Cc1cc(F)cc(C)c1C(=O)c1sc2cc(O)ccc2c1-c1ccc(O[C@H]2CCN(CCCF)C2)cc1 [Compound 108, (S)-(4-fluoro-2,6-dimethylphenyl)(3-(4-((1-(3-fluoropropyl)pyrrolidin-3-yl)oxy)phenyl)-6-hydroxybenzo[b]thiophen-2-yl)methanone]
< 1000 nM | *** | < 1000 nM | Cc1cc(F)cc(C)c1C(=O)c1sc2cc(O)ccc2c1-c1ccc(O[C@@H]2CCN(CCCF)C2)cc1 [Compound 110, (R)-(4-fluoro-2,6-dimethylphenyl)(3-(4-((1-(3-fluoropropyl)pyrrolidin-3-yl)oxy)phenyl)-6-hydroxybenzo[b]thiophen-2-yl)methanone]

SMILES | DC50 [1] | % Estrogen Receptor Remaining [1] | IC50 [2]
Cc1cc(F)cc(C)c1C(=O)c1sc2cc(O)ccc2c1Oc1ccc(O[C@@H]2CCN(CCCF)C2)cc1 [Compound 102, (R)-(4-fluoro-2,6-dimethylphenyl)(3-(4-((1-(3-fluoropropyl)pyrrolidin-3-yl)oxy)phenoxy)-6-hydroxybenzo[b]thiophen-2-yl)methanone] | < 1000 nM | **** (**** denotes 0-0% Estrogen Receptor remaining) | < 1000 nM
Cc1cc(F)cc(C)c1C(=O)c1sc2c(F)c(O)ccc2c1Oc1ccc(OC2CCN(CCCF)C2)cc1 (stereo in doubt) [Compound 112, (R)-(4-fluoro-2,6-dimethylphenyl)(7-fluoro-3-(4-((1-(3-fluoropropyl)pyrrolidin-3-yl)oxy)phenoxy)-6-hydroxybenzo[b]thiophen-2-yl)methanone] | < 1000 nM | **** (**** denotes 0-0% Estrogen Receptor remaining) | < 1000 nM
Cc1cc(F)cc(C)c1C(=O)c1sc2cc(O)c(F)cc2c1Oc1ccc(OC2CCN(CCCF)C2)cc1 (stereo in doubt) [Compound 113, (R)-(4-fluoro-2,6-dimethylphenyl)(5-fluoro-3-(4-((1-(3-fluoropropyl)pyrrolidin-3-yl)oxy)phenoxy)-6-hydroxybenzo[b]thiophen-2-yl)methanone] | < 1000 nM | **** (**** denotes 0-0% Estrogen Receptor remaining) | < 1000 nM
Cc1cc(F)cc(C)c1C(=O)c1sc2cc(O)ccc2c1Oc1ccc(O[C@H]2CCN(CCCF)C2)cc1 [Compound 100, (S)-(4-fluoro-2,6-dimethylphenyl)(3-(4-((1-(3-fluoropropyl)pyrrolidin-3-yl)oxy)phenoxy)-6-hydroxybenzo[b]thiophen-2-yl)methanone] | < 1000 nM | **** (**** denotes 0-0% Estrogen Receptor remaining) | < 1000 nM
Cc1cc(F)cc(C)c1C(=O)c1sc2cc(S(N)(=O)=O)ccc2c1Oc1ccc(O[C@H]2CCN(CCCF)C2)cc1 [Compound 116, (S)-2-(4-fluoro-2,6-dimethylbenzoyl)-3-(4-((1-(3-fluoropropyl)pyrrolidin-3-yl)oxy)phenoxy)benzo[b]thiophene-6-sulfonamide] | < 1000 nM | **** (**** denotes 0-0% Estrogen Receptor remaining) | –
